This assay deals with T1, CMP-Neu5Ac synthetase (SiaB) (Haemophilus influenzae, UniProt Q57140).
T1 construct: gene neuA; full-length siaB in pET51-Ek/LIC, N-terminal 6xHis tag (so in the source) kept; expressed in E. coli, Talon purified; 24,800 Da; amine-coupled to CM5 chip
Put plainly: surface plasmon resonance, immobilised SiaB. Format: binding.

Where [1] appears, read: 20 mM MgCl2, 0.2 M MOPS, pH 8.1, 37°C, enzyme amine-coupled to CM5 chip.

Like-named read-outs stand apart in the source and are kept apart here.

On to `O=C(CO)N[C@H]1[C@H]([C@H](O)[C@H](O)CO)OC(O)(C(=O)O)C[C@@H]1O` (stereo partly drawn) [Neu5Gc], for which, under setting [1], the Kd was found to be 1000 nM. This counts as single-digit micromolar. The compound `Nc1ccn([C@@H]2O[C@H](COP(=O)(O)OP(=O)(O)OP(=O)(O)O)[C@@H](O)[C@H]2O)c(=O)n1` [CTP] registered a Kd of more than 200000 nM.

Consider `CC(=O)N[C@H]1[C@H]([C@H](O)[C@H](O)CO)OC(O)(C(=O)O)C[C@@H]1O` (stereo partly drawn) [Neu5Ac], for which the Kd under setting [1] worked out at 1.2 nM.

Values taken from PMC6509186, “Nontypeable Haemophilus influenzae Has Evolved Preferential Use of N-Acetylneuraminic Acid as a Host Adaptation” (mBio, 2019).
